Results published in patent US5112947A, “Peptides, and antidementia agents containing the same” (Nippon Chemiphar Co., Ltd., priority 1989, dated 1992).
Non-standard residues stand in square brackets, D forms with d. Residues, ends and D or L forms follow the SMILES beside them. *: point of attachment. Cys(free,S-linked) = N[C@@H](CS*)C(=O)O; pGlu = O=C1CC[C@@H](C(=O)O)N1; Aze = O=C(O)[C@@H]1CCN1

The molecules below were run on male Wistar rats (assay: one-trial passive avoidance test: improvement of experimental retrograde amnesia by cycloheximide). Conditions: dose 0.1 ng/kg, given 1 h before electro-shock (0.5 mA); cycloheximide 2.7 to 3.0 mg/kg s.c.; retention tested at 48 hours; control = cycloheximide alone.
Format: in vivo, rat
Description: 221, pp. […], 1983. […] At 48 hours after the administration was made, memory retention of the rats were tested.

Row | Compound | Effect (%): ratio of response latent period of each group to that of the control groups [%]
1 | N=C(N)NCCC[C@H](NC(=O)[C@@H]1CCCN1C(=O)[C@H](CO)NC(=O)[C@H](CC(N)=O)NC(=O)[C@@H]1CCC(=O)N1)C(=O)NCC(N)=O [Example 21, pGlu-Asn-Ser-Pro-Arg-Gly-NH2 acetate] (HELM PEPTIDE1{[Glp].N.S.P.R.G.[am]}$$$$V2.0) | 353
2 | N=C(N)NCCC[C@H](NC(=O)[C@@H]1CCCN1C(=O)[C@H](CO)NC(=O)[C@@H]1CCCN1)C(=O)O [Example 27, H-Pro-Ser-Pro-Arg-OH acetate] (H-PSPR-OH) | 213

Same assay, conditions: dose 1 ng/kg, given 1 h before electro-shock (0.5 mA); cycloheximide 2.7 to 3.0 mg/kg s.c.; retention tested at 48 hours; control = cycloheximide alone

Row | Compound | Effect (%): ratio of response latent period of each group to that of the control groups [%]
3 | N=C(N)NCCC[C@H](NC(=O)[C@@H]1CCCCN1C(=O)[C@H](CO)NC(=O)[C@@H](N)CC(N)=O)C(=O)O [Example 12, H-Asn Ser-Pip-Arg-OH acetate] (HELM PEPTIDE1{N.S.[O=C([C@@H]1CCCCN1[*:1])[*:2]].R}$$$$V2.0) | 235
4 | N=C(N)NCCC[C@H](NC(=O)[C@@H]1CCCN1C(=O)[C@H](CSSC[C@H](N)C(=O)O)NC(=O)[C@@H]1CCCN1)C(=O)NCC(N)=O [Example 17] (H-PC(Cys(free,S-linked))PRG-NH2) | 365
5 | C[C@H](NC(=O)[C@@H](N)CC(N)=O)C(=O)N1CCC[C@H]1C(=O)N[C@@H](CCCNC(=N)N)C(=O)O [Example 9, H-Asn-Ala-Pro-Arg-OH acetate] (H-NAPR-OH) | 460
6 | N=C(N)NCCC[C@H](NC(=O)[C@@H]1CCN1C(=O)[C@H](CSSC[C@H](N)C(=O)O)NC(=O)[C@H](CC(N)=O)NC(=O)[C@@H]1CCC(=O)N1)C(=O)NCC(N)=O [Example 6] ([pGlu]NC(Cys(free,S-linked))[Aze]RG-NH2) | 239
